Measured values from PubChem BioAssay (NCI).
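1) Cells in 96-well plates. 2) Compound, 48 h, 5 concentrations. 3) Linear interpolation between surrounding doses. 4) Unreached endpoint = highest concentration. Definition used: TGI = concentration required for complete inhibition of growth.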

Columns and labels:
Assay in all cases: NCI-60 cell line screen, 48 h
HCT-15 colon = test system: HCT-15 colon
SF-295 CNS = test system: SF-295 CNS
M14 melanoma = test system: M14 melanoma
SN12C renal = test system: SN12C renal
COLO 205 colon = test system: COLO 205 colon
OVCAR-8 ovarian = test system: OVCAR-8 ovarian
NCI-H522 lung = test system: NCI-H522 lung
HT29 colon = test system: HT29 colon
SNB-75 CNS = test system: SNB-75 CNS
M19-MEL melanoma = test system: M19-MEL melanoma
DLD-1 colon = test system: DLD-1 colon
KM12 colon = test system: KM12 colon
TK-10 renal = test system: TK-10 renal
RXF 393 renal = test system: RXF 393 renal
K-562 leukemia = test system: K-562 leukemia
HOP-92 NSCLC = test system: HOP-92 NSCLC
DMS 273 small cell lung = test system: DMS 273 small cell lung
A498 renal = test system: A498 renal
MOLT-4 leukemia = test system: MOLT-4 leukemia
UACC-62 melanoma = test system: UACC-62 melanoma
HOP-62 NSCLC = test system: HOP-62 NSCLC
SK-OV-3 ovarian = test system: SK-OV-3 ovarian
KM20L2 colon = test system: KM20L2 colon
UO-31 renal = test system: UO-31 renal
SW-620 colon = test system: SW-620 colon
OVCAR-4 ovarian = test system: OVCAR-4 ovarian
LXFL 529 NSCLC = test system: LXFL 529 NSCLC
NCI-H460 lung = test system: NCI-H460 lung
SK-MEL-5 melanoma = test system: SK-MEL-5 melanoma
SR leukemia = test system: SR leukemia
SF-268 CNS = test system: SF-268 CNS
RXF-631 renal = test system: RXF-631 renal
SNB-19 CNS = test system: SNB-19 CNS
HCT-116 colon = test system: HCT-116 colon
SNB-78 CNS = test system: SNB-78 CNS
NCI-H226 lung = test system: NCI-H226 lung
OVCAR-3 ovarian = test system: OVCAR-3 ovarian
HOP-18 NSCLC = test system: HOP-18 NSCLC
A549 NSCLC = test system: A549 NSCLC
IGROV1 ovarian = test system: IGROV1 ovarian
SK-MEL-28 melanoma = test system: SK-MEL-28 melanoma
U251 CNS = test system: U251 CNS
ACHN renal = test system: ACHN renal
HCC-2998 colon = test system: HCC-2998 colon
SK-MEL-2 melanoma = test system: SK-MEL-2 melanoma
DMS 114 small cell lung = test system: DMS 114 small cell lung
LOX IMVI melanoma = test system: LOX IMVI melanoma
UACC-257 melanoma = test system: UACC-257 melanoma
OVCAR-5 ovarian = test system: OVCAR-5 ovarian
CAKI-1 renal = test system: CAKI-1 renal
CCRF-CEM leukemia = test system: CCRF-CEM leukemia
EKVX NSCLC = test system: EKVX NSCLC
RPMI-8226 leukemia = test system: RPMI-8226 leukemia
HL-60(TB) leukemia = test system: HL-60(TB) leukemia
786-0 renal = test system: 786-0 renal
SF-539 CNS = test system: SF-539 CNS
MALME-3M melanoma = test system: MALME-3M melanoma
NCI-H23 lung = test system: NCI-H23 lung

`CCOC(=O)c1cc2c(nc1N)-c1ncccc1CC2` gave a TGI (HCT-15 colon) greater than 100 µM, a TGI (SF-295 CNS) greater than 100 µM and a TGI (M14 melanoma) greater than 100 µM. It also gave a TGI (SN12C renal) greater than 100 µM, a TGI (COLO 205 colon) of 69.2 µM and a TGI (OVCAR-8 ovarian) greater than 100 µM. For the same compound, the TGI (NCI-H522 lung) was greater than 100 µM, the TGI (HT29 colon) was greater than 100 µM and the TGI (SNB-75 CNS) was greater than 100 µM. It also gave a TGI (M19-MEL melanoma) greater than 100 µM, a TGI (DLD-1 colon) greater than 100 µM and a TGI (KM12 colon) greater than 100 µM. It also gave a TGI (TK-10 renal) greater than 100 µM, a TGI (RXF 393 renal) greater than 100 µM and a TGI (K-562 leukemia) greater than 100 µM. The TGI (HOP-92 NSCLC) was greater than 100 µM, the TGI (DMS 273 small cell lung) was greater than 100 µM and the TGI (A498 renal) was greater than 100 µM. It also gave a TGI (MOLT-4 leukemia) greater than 100 µM, a TGI (UACC-62 melanoma) greater than 100 µM and a TGI (HOP-62 NSCLC) greater than 100 µM. It also gave a TGI (SK-OV-3 ovarian) greater than 100 µM, a TGI (KM20L2 colon) greater than 100 µM and a TGI (UO-31 renal) greater than 100 µM. For the same compound, the TGI (SW-620 colon) was greater than 100 µM, the TGI (OVCAR-4 ovarian) was greater than 100 µM and the TGI (LXFL 529 NSCLC) was greater than 100 µM. For the same compound, the TGI (NCI-H460 lung) was greater than 100 µM, the TGI (SK-MEL-5 melanoma) was greater than 100 µM and the TGI (SR leukemia) was 57 µM. It also gave a TGI (SF-268 CNS) greater than 100 µM, a TGI (RXF-631 renal) greater than 100 µM and a TGI (SNB-19 CNS) greater than 100 µM. For the same compound, the TGI (HCT-116 colon) was greater than 100 µM, the TGI (SNB-78 CNS) was greater than 100 µM and the TGI (NCI-H226 lung) was greater than 100 µM. For the same compound, the TGI (OVCAR-3 ovarian) was greater than 100 µM, the TGI (HOP-18 NSCLC) was greater than 100 µM and the TGI (A549 NSCLC) was greater than 100 µM. For the same compound, the TGI (IGROV1 ovarian) was greater than 100 µM, the TGI (SK-MEL-28 melanoma) was greater than 100 µM and the TGI (U251 CNS) was greater than 100 µM. For the same compound, the TGI (ACHN renal) was greater than 100 µM, the TGI (HCC-2998 colon) was greater than 100 µM and the TGI (SK-MEL-2 melanoma) was greater than 100 µM. For the same compound, the TGI (DMS 114 small cell lung) was 33 µM, the TGI (LOX IMVI melanoma) was greater than 100 µM and the TGI (UACC-257 melanoma) was greater than 100 µM. It also gave a TGI (OVCAR-5 ovarian) greater than 100 µM, a TGI (CAKI-1 renal) greater than 100 µM and a TGI (CCRF-CEM leukemia) greater than 100 µM. It also gave a TGI (EKVX NSCLC) greater than 100 µM, a TGI (RPMI-8226 leukemia) of 68.8 µM and a TGI (HL-60(TB) leukemia) greater than 100 µM. The TGI (786-0 renal) was greater than 100 µM, the TGI (SF-539 CNS) was greater than 100 µM and the TGI (MALME-3M melanoma) was greater than 100 µM. It also gave a TGI (NCI-H23 lung) greater than 100 µM.
